Assay results published in PMC5218480 (PLoS ONE, 2017).

Tested on: MV-4-11 cells
Assay: Gene expression microarray analysis (Affymetrix PrimeView) and GSEA
Type: cell-based, human
Set-up: RFU PODN (11730768_x_at) / Fold change /veh PODN (11730768_x_at) / RFU LINC00158 (11744669_a_at) / Fold change /veh LINC00158 (11744669_a_at) / RFU DUSP10 (11751237_a_at) / Fold change /veh DUSP10 (11751237_a_at) / RFU ID3 (11757404_x_at) / Fold change /veh ID3 (11757404_x_at) / RFU PLEKHG5 (11737974_s_at) / Fold change /veh PLEKHG5 (11737974_s_at) / RFU LRRC4B (11730491_at) / Fold change /veh LRRC4B (11730491_at) / RFU GIMAP4 (11747438_a_at) / Fold change /veh GIMAP4 (11747438_a_at) / RFU KRT8 (11758183_x_at) / Fold change /veh KRT8 (11758183_x_at) / RFU CNN1 (11734310_a_at) / Fold change /veh CNN1 (11734310_a_at) / RFU VPS37D (11726825_at) / Fold change /veh VPS37D (11726825_at) / RFU C10orf10 (11716522_x_at) / Fold change /veh C10orf10 (11716522_x_at) / RFU KIR2DL2 /// KIR2DL4 /// KIR2DL5A /// KIR2DL5B /// KIR2DS1 /// KIR2DS2 /// KIR2DS3 /// KIR2DS4 /// KIR3DL3 /// KIR3DL3 /// KIR3DS1 (11738374_at) / Fold change /veh KIR2DL2 /// KIR2DL4 /// KIR2DL5A /// KIR2DL5B /// KIR2DS1 /// KIR2DS2 /// KIR2DS3 /// KIR2DS4 /// KIR3DL3 /// KIR3DL3 /// KIR3DS1 (11738374_at) / RFU C1QL1 (11718748_at) / Fold change /veh C1QL1 (11718748_at) / RFU TMPRSS4 (11747572_a_at) / Fold change /veh TMPRSS4 (11747572_a_at) / RFU HAMP (11756126_x_at) / Fold change /veh HAMP (11756126_x_at) / RFU RNFT2 (11725882_a_at) / Fold change /veh RNFT2 (11725882_a_at) / RFU NR4A2 (11747474_a_at) / Fold change /veh NR4A2 (11747474_a_at) / RFU ABCC12 (11746883_a_at) / Fold change /veh ABCC12 (11746883_a_at) / RFU TMEM136 (11760407_x_at) / Fold change /veh TMEM136 (11760407_x_at) / RFU CLDN22 /// WWC2 (11732394_at) / Fold change /veh CLDN22 /// WWC2 (11732394_at) / RFU HLA-DPB1 (11760878_x_at) / Fold change /veh HLA-DPB1 (11760878_x_at) / RFU SPINT1 (11716480_a_at) / Fold change /veh SPINT1 (11716480_a_at) / RFU GAP43 (11754022_s_at) / Fold change /veh GAP43 (11754022_s_at) / RFU A4GNT (11735810_at) / Fold change /veh A4GNT (11735810_at) / RFU PRB3 (11715151_x_at) / Fold change /veh PRB3 (11715151_x_at) / RFU TUBB4B (11761932_at) / Fold change /veh TUBB4B (11761932_at) / RFU CAPN14 (11732068_a_at) / Fold change /veh CAPN14 (11732068_a_at) / RFU TMCC2 (11721928_a_at) / Fold change /veh TMCC2 (11721928_a_at) / RFU IRGQ (11745062_a_at) / Fold change /veh IRGQ (11745062_a_at) / RFU FAM174B (11720279_a_at) / Fold change /veh FAM174B (11720279_a_at) / RFU TMPRSS4 (11748680_a_at) / Fold change /veh TMPRSS4 (11748680_a_at) / RFU FAM212B (11763350_a_at) / Fold change /veh FAM212B (11763350_a_at) / RFU PLEKHG5 (11743358_a_at) / Fold change /veh PLEKHG5 (11743358_a_at) / RFU ZSCAN30 (11745921_a_at) / Fold change /veh ZSCAN30 (11745921_a_at) / RFU CMKLR1 (11741424_a_at) / Fold change /veh CMKLR1 (11741424_a_at) / RFU LOC101060620 /// MAPK8IP1 (11723275_at) / Fold change /veh LOC101060620 /// MAPK8IP1 (11723275_at) / RFU SPTSSB (11747773_x_at) / Fold change /veh SPTSSB (11747773_x_at) / RFU PRSS12 (11739890_at) / Fold change /veh PRSS12 (11739890_at) / RFU BIN1 (11741810_x_at) / Fold change /veh BIN1 (11741810_x_at) / RFU WNT11 (11732464_a_at) / Fold change /veh WNT11 (11732464_a_at) / RFU C10orf10 (11716521_a_at) / Fold change /veh C10orf10 (11716521_a_at) / RFU C5orf56 (11738089_at) / Fold change /veh C5orf56 (11738089_at) / RFU CYB561 (11721691_x_at) / Fold change /veh CYB561 (11721691_x_at) / RFU ANKRD19P (11752326_a_at) / Fold change /veh ANKRD19P (11752326_a_at) / RFU OR2T12 /// OR2T33 /// OR2T8 (11738714_s_at) / Fold change /veh OR2T12 /// OR2T33 /// OR2T8 (11738714_s_at) / RFU VCAN (11748164_a_at) / Fold change /veh VCAN (11748164_a_at) / RFU JSRP1 (11732532_at) / Fold change /veh JSRP1 (11732532_at) / RFU KRTAP10-11 (11738290_x_at) / Fold change /veh KRTAP10-11 (11738290_x_at) / RFU MYO3A (11730013_a_at) / Fold change /veh MYO3A (11730013_a_at) / RFU EBF3 (11725865_a_at) / Fold change /veh EBF3 (11725865_a_at) / RFU CAMK2N1 (11719241_x_at) / Fold change /veh CAMK2N1 (11719241_x_at) / RFU C5orf56 (11738088_a_at) / Fold change /veh C5orf56 (11738088_a_at) / RFU OLFML3 (11715873_a_at) / Fold change /veh OLFML3 (11715873_a_at) / RFU LOC100653217 /// NTM (11731650_a_at) / Fold change /veh LOC100653217 /// NTM (11731650_a_at) / RFU MAPK11 (11762145_a_at) / Fold change /veh MAPK11 (11762145_a_at) / RFU FIZ1 (11724087_x_at) / Fold change /veh FIZ1 (11724087_x_at) / RFU OASL (11726364_x_at) / Fold change /veh OASL (11726364_x_at) / RFU SOX15 (11748057_x_at) / Fold change /veh SOX15 (11748057_x_at) / RFU CD79A (11719716_a_at) / Fold change /veh CD79A (11719716_a_at) / RFU HIST1H1D (11736915_at) / Fold change /veh HIST1H1D (11736915_at) / RFU CASKIN2 (11723855_a_at) / Fold change /veh CASKIN2 (11723855_a_at) / RFU LOC730098 (11760151_x_at) / Fold change /veh LOC730098 (11760151_x_at) / RFU OR4N2 (11742367_at) / Fold change /veh OR4N2 (11742367_at) / RFU PRRT2 (11749266_a_at) / Fold change /veh PRRT2 (11749266_a_at) / RFU SNX32 (11753110_a_at) / Fold change /veh SNX32 (11753110_a_at) / RFU CDHR5 (11726645_a_at) / Fold change /veh CDHR5 (11726645_a_at) / RFU RCAN1 (11760418_a_at) / Fold change /veh RCAN1 (11760418_a_at) / RFU FAM167A (11723789_a_at) / Fold change /veh FAM167A (11723789_a_at) / RFU FAM26E (11764081_at) / Fold change /veh FAM26E (11764081_at) / RFU ISYNA1 (11749810_s_at) / Fold change /veh ISYNA1 (11749810_s_at) / RFU ACY1 (11761880_at) / Fold change /veh ACY1 (11761880_at) / RFU 11764098_at / Fold change /veh 11764098_at / RFU SAMD14 (11745864_x_at) / Fold change /veh SAMD14 (11745864_x_at) / RFU NPB (11741838_a_at) / Fold change /veh NPB (11741838_a_at) / RFU TMPRSS6 (11731388_a_at) / Fold change /veh TMPRSS6 (11731388_a_at) / RFU KRTAP10-2 (11738614_at) / Fold change /veh KRTAP10-2 (11738614_at) / RFU ARHGAP8 /// PRR5-ARHGAP8 (11727945_x_at) / Fold change /veh ARHGAP8 /// PRR5-ARHGAP8 (11727945_x_at) / RFU KRTAP5-7 /// NADSYN1 (11734609_at) / Fold change /veh KRTAP5-7 /// NADSYN1 (11734609_at) / RFU RASL12 (11751679_a_at) / Fold change /veh RASL12 (11751679_a_at) / RFU CDKN2B (11736163_a_at) / Fold change /veh CDKN2B (11736163_a_at) / RFU PRF1 (11729649_at) / Fold change /veh PRF1 (11729649_at) / RFU, ZNF638 /// ZNF638-IT1 / Fold change vs veh, ZNF638 /// ZNF638-IT1 / RFU, PANK3 / Fold change vs veh, PANK3 / RFU, SH3YL1 / Fold change vs veh, SH3YL1 / RFU, ZEB2 / Fold change vs veh, ZEB2 / RFU, NRIP1 / Fold change vs veh, NRIP1 / RFU, PTTG1IP / Fold change vs veh, PTTG1IP / RFU, CAPN2 / Fold change vs veh, CAPN2 / RFU, MED14 / Fold change vs veh, MED14 / RFU, SNORA58 / Fold change vs veh, SNORA58 / RFU, C1orf63 / Fold change vs veh, C1orf63 / RFU, LRRFIP1 / Fold change vs veh, LRRFIP1 / RFU, NDUFAF7 / Fold change vs veh, NDUFAF7 / RFU, SLC12A2 / Fold change vs veh, SLC12A2 / RFU, IBTK / Fold change vs veh, IBTK / RFU, ESF1 / Fold change vs veh, ESF1 / Fold change vs veh, TMEM50B / RFU, TAOK1 / Fold change vs veh, TAOK1 / RFU, ACBD3 / Fold change vs veh, ACBD3 / RFU, TMA16 / Fold change vs veh, TMA16 / RFU, RWDD3 / Fold change vs veh, RWDD3 / RFU, BCAT1 / Fold change vs veh, BCAT1 / RFU, EDEM3 / Fold change vs veh, EDEM3 / RFU, TMEM33 / Fold change vs veh, TMEM33 / RFU, WDR75 / Fold change vs veh, WDR75 / RFU, AHCTF1 / Fold change vs veh, AHCTF1 / RFU, TFRC / Fold change vs veh, TFRC / RFU, ZDHHC17 / Fold change vs veh, ZDHHC17 / RFU, NOM1 / Fold change vs veh, NOM1 / RFU, ARL8B / Fold change vs veh, ARL8B / RFU, ZBTB11 / Fold change vs veh, ZBTB11 / RFU, TAMM41 / Fold change vs veh, TAMM41 / RFU, KIAA1704 /// LOC100996395 / Fold change vs veh, KIAA1704 /// LOC100996395 / RFU, ING1 / Fold change vs veh, ING1 / RFU, TRMT61B / Fold change vs veh, TRMT61B / RFU, FUBP3 / Fold change vs veh, FUBP3 / RFU, TP53 / Fold change vs veh, TP53 / RFU, TNKS2 / Fold change vs veh, TNKS2 / RFU, ZFP14 / Fold change vs veh, ZFP14 / RFU, ACTR2 / Fold change vs veh, ACTR2 / RFU, PPP3R1 / Fold change vs veh, PPP3R1 / RFU, PIK3R1 / Fold change vs veh, PIK3R1 / RFU, HNRNPA1 / Fold change vs veh, HNRNPA1 / RFU, RNF170 / Fold change vs veh, RNF170 / RFU, ZNF28 / Fold change vs veh, ZNF28 / RFU, RNGTT / Fold change vs veh, RNGTT / RFU, OGT / Fold change vs veh, OGT / RFU, BRD1 / Fold change vs veh, BRD1 / RFU, MARS / Fold change vs veh, MARS / RFU, ZNF655 / Fold change vs veh, ZNF655 / RFU, FAHD1 / Fold change vs veh, FAHD1 / RFU, BDP1 / Fold change vs veh, BDP1 / RFU, LRRCC1 / Fold change vs veh, LRRCC1 / RFU, ARID1A / Fold change vs veh, ARID1A / RFU, ZNF146 / Fold change vs veh, ZNF146 / RFU, ZNF330 / Fold change vs veh, ZNF330 / RFU, GPN3 / Fold change vs veh, GPN3 / RFU, C9orf123 / Fold change vs veh, C9orf123 / RFU, N4BP2L2 / Fold change vs veh, N4BP2L2 / RFU, ARFIP1 / Fold change vs veh, ARFIP1 / RFU, FAM179B / Fold change vs veh, FAM179B / RFU, BCL10 / Fold change vs veh, BCL10 / RFU, UHRF1BP1L / Fold change vs veh, UHRF1BP1L / RFU, BET1 / Fold change vs veh, BET1 / RFU, CNOT2 / Fold change vs veh, CNOT2 / RFU, ZNF268 / Fold change vs veh, ZNF268 / Fold change vs veh, ZNF507 / RFU, DGCR2 / Fold change vs veh, DGCR2 / RFU, WDSUB1 / Fold change vs veh, WDSUB1 / Fold change vs veh, HSP90B1 /// MIR3652 / RFU, ADSS / Fold change vs veh, ADSS / RFU, GK / Fold change vs veh, GK / RFU, ZNF148 / Fold change vs veh, ZNF148 / RFU, TAF9 / Fold change vs veh, TAF9 / RFU, SLC1A5 / Fold change vs veh, SLC1A5 / RFU, SLMO2 / Fold change vs veh, SLMO2 / RFU, ABCC4 / Fold change vs veh, ABCC4 / RFU, LOC101060439 /// RAP1B / Fold change vs veh, LOC101060439 /// RAP1B / RFU, RFX7 / Fold change vs veh, RFX7 / RFU, GTPBP10 / Fold change vs veh, GTPBP10 / RFU, CNEP1R1 / Fold change vs veh, CNEP1R1 / RFU, BIVM-ERCC5 /// ERCC5 / Fold change vs veh, BIVM-ERCC5 /// ERCC5 / RFU, ILF3 / Fold change vs veh, ILF3 / RFU 11762660_at / Fold change /veh 11762660_at / RFU VCAN (11757783_s_at) / Fold change /veh VCAN (11757783_s_at) / RFU DDX43 (11728927_at) / Fold change /veh DDX43 (11728927_at) / RFU KRT8 (11758188_x_at) / Fold change /veh KRT8 (11758188_x_at) / RFU NKD1 (11759106_at) / Fold change /veh NKD1 (11759106_at) / RFU SRD5A1 (11742802_a_at) / Fold change /veh SRD5A1 (11742802_a_at) / RFU TPSAB1 /// TPSB2 (11721975_s_at) / Fold change /veh TPSAB1 /// TPSB2 (11721975_s_at) / RFU GSTM3 (11746129_a_at) / Fold change /veh GSTM3 (11746129_a_at) / RFU IL23R (11737362_x_at) / Fold change /veh IL23R (11737362_x_at) / RFU TMEM51 (11727254_a_at) / Fold change /veh TMEM51 (11727254_a_at) / RFU PIWIL2 (11732686_x_at) / Fold change /veh PIWIL2 (11732686_x_at) / RFU ORM1 (11744905_x_at) / Fold change /veh ORM1 (11744905_x_at) / RFU CCDC152 (11743942_at) / Fold change /veh CCDC152 (11743942_at) / RFU ECM1 (11717891_a_at) / Fold change /veh ECM1 (11717891_a_at) / RFU IL23R (11748794_a_at) / Fold change /veh IL23R (11748794_a_at) / RFU TNFAIP8L3 (11732012_x_at) / Fold change /veh TNFAIP8L3 (11732012_x_at) / RFU MBOAT4 (11741988_at) / Fold change /veh MBOAT4 (11741988_at) / RFU 11764193_at / Fold change /veh 11764193_at / RFU TMEM53 (11763286_at) / Fold change /veh TMEM53 (11763286_at) / RFU MAGEB2 (11727129_at) / Fold change /veh MAGEB2 (11727129_at) / RFU TMEM200A (11744735_a_at) / Fold change /veh TMEM200A (11744735_a_at) / RFU CCDC152 (11751479_a_at) / Fold change /veh CCDC152 (11751479_a_at) / RFU FAM211A (11726209_a_at) / Fold change /veh FAM211A (11726209_a_at) / RFU RGS16 (11746705_a_at) / Fold change /veh RGS16 (11746705_a_at) / RFU VCAN (11755009_s_at) / Fold change /veh VCAN (11755009_s_at) / RFU RHOB (11743442_s_at) / Fold change /veh RHOB (11743442_s_at) / RFU RGS16 (11720943_a_at) / Fold change /veh RGS16 (11720943_a_at) / RFU RGS16 (11720944_at) / Fold change /veh RGS16 (11720944_at) / RFU, VPS4B / Fold change vs veh, VPS4B / RFU, CREB1 / Fold change vs veh, CREB1 / RFU, DNAJC13 / Fold change vs veh, DNAJC13 / RFU, GNAQ / Fold change vs veh, GNAQ / RFU, CDK5R1 / Fold change vs veh, CDK5R1 / RFU, ZRANB3 / Fold change vs veh, ZRANB3 / RFU, CUL4A / Fold change vs veh, CUL4A / RFU, CCNY / Fold change vs veh, CCNY / RFU, UFL1 / Fold change vs veh, UFL1 / RFU, COG3 / Fold change vs veh, COG3 / RFU, DIAPH2 / Fold change vs veh, DIAPH2 / RFU, SKA2 / Fold change vs veh, SKA2 / RFU, AFF3 / Fold change vs veh, AFF3 / RFU, LMF1 / Fold change vs veh, LMF1 / RFU, IPO11 / Fold change vs veh, IPO11 / RFU, DFFB / Fold change vs veh, DFFB / RFU, FOXP1 / Fold change vs veh, FOXP1 / RFU, CARD8 / Fold change vs veh, CARD8 / RFU, STRN3 / Fold change vs veh, STRN3 / RFU, ADK / Fold change vs veh, ADK / RFU, RASSF2 / Fold change vs veh, RASSF2 / RFU, WIPF1 / Fold change vs veh, WIPF1 / RFU, LARP1B / Fold change vs veh, LARP1B / RFU, RASA1 / Fold change vs veh, RASA1 / RFU, RB1 / Fold change vs veh, RB1 / RFU, PPFIA1 / Fold change vs veh, PPFIA1 / RFU, MAT2A / Fold change vs veh, MAT2A / RFU, CCT5 / Fold change vs veh, CCT5 / RFU, WDR92 / Fold change vs veh, WDR92 / RFU, CUX1 / Fold change vs veh, CUX1 / RFU, TTC7A / Fold change vs veh, TTC7A / RFU, TMEM135 / Fold change vs veh, TMEM135 / RFU, DEPTOR / Fold change vs veh, DEPTOR / RFU, CPM / Fold change vs veh, CPM / RFU, DNAJB6 / Fold change vs veh, DNAJB6 / RFU, CACNA2D3 / Fold change vs veh, CACNA2D3 / RFU, DTX4 / Fold change vs veh, DTX4 / RFU, TFCP2 / Fold change vs veh, TFCP2 / RFU, GMCL1 /// GMCL1P1 / Fold change vs veh, GMCL1 /// GMCL1P1 / RFU, AEBP2 / Fold change vs veh, AEBP2 / RFU, SNHG1 /// SNORD22 /// SNORD25 /// SNORD26 /// SNORD27 /// SNORD28 /// SNORD29 /// SNORD31 / Fold change vs veh, SNHG1 /// SNORD22 /// SNORD25 /// SNORD26 /// SNORD27 /// SNORD28 /// SNORD29 /// SNORD31 / Fold change (Aza/veh), C12orf56 (ProbeSet 11735607_a_at) / Fold change (ACY-1035/veh), C12orf56 (ProbeSet 11735607_a_at) / Fold change (Aza/veh), FGFR1OP (ProbeSet 11751329_s_at) / Fold change (ACY-1035/veh), FGFR1OP (ProbeSet 11751329_s_at) / Fold change (Aza/veh), VPS36 (ProbeSet 11739960_a_at) / Fold change (ACY-1035/veh), VPS36 (ProbeSet 11739960_a_at) / RFU SYPL1 (11715823_x_at) / Fold change /veh SYPL1 (11715823_x_at) / RFU IGFBP7 (11715501_s_at) / Fold change /veh IGFBP7 (11715501_s_at) / RFU REEP3 (11722064_at) / Fold change /veh REEP3 (11722064_at) / RFU IGLL1 (11728026_x_at) / Fold change /veh IGLL1 (11728026_x_at): dose or concentration left out as unconfirmed
Conditions: MV-4-11 cells, 48 hours

Nc1ccc(-c2cccs2)cc1NC(=O)c1ccc2c(c1)cc(C1CC1)n2CCN1CCOCC1 [ACY-1035] was tested, and the “Fold change /veh TMEM53 (11763286_at)” value was 0.91.
